In assay [1] the test system is HCT116 cells. Description: Detection of reactive oxygen species (H2DCF-DA). The class given is cell-based, human. As to conditions: 1, 2 and 4 μM, 24 and 48 h, vs vehicle. How it is done:
H2DCF-DA was used as previously described (Amawi et al., [2017c]). The cells that had been incubated with the test compound were further incubated with 3 μM of the H2DCF-DA working solution for 30 min at 37°C. The fluorescence level of oxidized DCF (excitation at 485 nm and emission at 535 nm) was detected under EVOS digital fluorescent microscope at 40x.

For another assay, the system named is caspases 3 and 7. Description: IncuCyte caspase-3/7 real time apoptosis. The class given is cell-based, human. How it is done:
(§1) For real time quantification of apoptosis induction, the fluorescent Caspase 3/7 and Annexin V red reagents, with an excitation maximum of 500 and 593 nm and an emission maximum of 530 and 614 nm, respectively, were used. The HCT116 cells were seeded at a density of 1,000 cell/well and allowed to grow overnight. The next day, compound 15k at 0, 2, 4, and 8μM was prepared and added, directly followed by the caspase 3/7 reagent at final concentration of 5μM or annexin V red reagent in final dilution of 1: 200. The cells were then incubated in IncuCyte Zoom live cell imaging and pictures were taken every 2 h for up to 50 h and analyzed using the integrated software. The IncuCyte® Caspase-3/7 apoptosis assay reagent couples the activated caspase-3/7 recognition motif (DEVD) to NucView™ 488, a DNA intercalating dye to enable quantification of apoptosis over time. Caspase-3/7 assay reagent is non-perturbing to cell growth and morphology. When added to cell culture medium, this inert, non-fluorescent substrate crosses the cell membrane, where it is cleaved by activated caspase-3/7, resulting in the release of the DNA dye and green fluorescent staining of nuclear DNA.

Another assay relates to S1. Description: MTT assay. As to conditions: Homo sapiens, 72 h incubation, mean ± SD of three experiments, read-out: IC50 ± SD, Colon S1. It counts as cell-based. The procedure: (§2) The 3-(4,5-dimethylthiazol-2-yl)-2,5-diphenyltetrazolium bromide (MTT) assay was used to determine the sensitivity of the different CRC cells to the novel silybin derivatives (Hussein et al., [2017]; Manivannan et al., [2017]). The cells were seeded at a density of 4,000–5,000 cells/well in 96 well plates and incubated with serial dilutions of the compounds (0, 0.1, 0.3, 1, 3, 10, 30, and 100 μM). The MTT dye (4 mg/ml) was added after 72 h of incubation and incubated with the cells for an additional 4 h at 37°C. Following incubation, the media was discarded and the formazan crystals were dissolved by adding 100 μL of DMSO to each well. A DTX 880 multimode detector (Beckman Coulter Life, Indianapolis IN, USA) was used to determine the absorbance readings at a wavelength of 570 nm. The IC50 values were determined based on 3 separate experiments, with each experiment done in triplicate. The selectivity of the compounds was determined by comparing their cytotoxicity for CRC to normal epithelial cell lines (CHO, and CRL1459).
Background: Tetrazolium assays rely on reduction of a dye to a coloured formazan, in cell work by metabolically active cells.

A further assay has as its system LOVO. As to the kind of experiment: MTT assay. It counts as cell-based. The note with it: Homo sapiens, 72 h incubation, mean ± SD of three experiments, read-out: IC50 ± SD, Colon LOVO. How it is done:
as §2

Assay [2] relates to HCT116. As to the kind of experiment: Cell cycle analysis (PI, flow cytometry). As to conditions: 0, 2 or 4 μM, 12 h, data not shown. The class given is cell-based, human. How it is done:
Cell cycle analysis was performed as described previously (Pozarowski and Darzynkiewicz, [2004]). Briefly, a 6 well plate was used for the seeding of HCT116 at 1 × 10^6 cells/well. The next day, 15j and 15k (0, 2, or 4 μM) were added and incubated with the seeded cells. After 12 h, the cells were trypsinzed with 0.25% trypsin, 2.21 mM EDTA, 1X, washed, counted and resuspended in 0.5 ml of ice cold PBS. PI stain was added to each suspension for at least 15 min to stain the DNA. The cell cycle analysis and cell distribution for each phase was measured using a BD Accuri™ C6 flow cytometer (BD Biosciences, Becton-Dickinson, San Jose, CA, USA) and analyzed using FCS express 5 plus De Novo software (Glendale, CA, USA).
In general terms: In flow cytometry, cells or beads pass a laser one at a time.

Assay [3] deals with HCT116 cells. As to the kind of experiment: Hoechst staining of nuclear condensation. The class given is cell-based, human. The note with it: 2 or 4 μM, overnight, vs vehicle. The procedure:
Nuclear condensation was detected using Hoechst 33258 DNA dye. HCT116 cells were seeded at 1 × 10^5 cells/well in 6-well plates and incubated overnight at 37°C. The following day, cells were exposed to 15k or 15j (0, 2, and 4 μM) and further incubated overnight at 37°C. The cells were fixed and stained with Hoechst 33258 for at least 30 min. An EVOS digital microscope was used to detect the stained nucleus fluorescence at wavelengths of 460–490 nm.

For assay [4], the system named is HCT116 cells. Description: IncuCyte annexin V red real time apoptosis. The class given is cell-based, human. The procedure:
as §1

The subject of assay [5] is HCT116 Bak knockout (Bak–/–) cells. As to the kind of experiment: MTT assay, knockout cells. It counts as cell-based. The note with it: Homo sapiens, HCT-116, not significantly different from WT. How it is done:
(§3) Colorectal cancer cell lines, including HCT116, LOVO, and S1, with varying drug sensitivity and invasiveness, were grown as adherent monolayer in culturing flasks. Normal epithelial cells lines (Chinese hamster ovarian: CHO, normal epithelial colon: CRL1459) were also grown. Both cancerous and normal cell lines were kindly obtained from the late Dr. Gary Kruh (University of Chicago, Illinois). In addition, CRC HCT116 Bax knockout (Bax–/–) cells were kindly provided by Dr. Bert Vogelstein (Johns Hopkins, Baltimore) (Zhang et al., [2000]), Bak knockout (Bak–/–) and Bax-Bak double knockout (Bax–/– and Bak–/–) cells were kindly provided by Richard Youle (NIH, […], MD) (Wang and Youle, [2012]). DMEM, with 4.5 g of glucose, was supplemented with 10% fetal bovine serum (FBS) and 1% penicillin/streptomycin and used for all cell lines. The cells were cultured in a humidified incubator containing 5% CO2 at 37°C. All of cells were checked and confirmed to be free of fungi and mycoplasma. Cells were obtained from frozen stocks and cell passaging (up to P4) was performed at 80% cell confluency by PBS and trypsin + 2.2 mM EDTA.
as §2, with “Following incubation, the media was discarded and the formazan crystals were dissolved by adding 100 μL of DMSO to each well.” left out

In assay [6] the test system is HCT116 Bax-Bak double knockout (DKO) cells. Description: MTT assay, knockout cells. The class given is cell-based. The note with it: Homo sapiens, HCT-116, p < 0.05 vs WT. The procedure: as §3
as §2, with “Following incubation, the media was discarded and the formazan crystals were dissolved by adding 100 μL of DMSO to each well.” left out

Assay [7] deals with HCT116 Bax knockout (Bax–/–) cells. Description: MTT assay, knockout cells. The class given is cell-based. The note with it: Homo sapiens, HCT-116, p < 0.05 vs WT. How it is done: as §3
as §2, with “Following incubation, the media was discarded and the formazan crystals were dissolved by adding 100 μL of DMSO to each well.” left out

For another assay, the system named is CHO. As to the kind of experiment: MTT assay, normal cell line. The note with it: Cricetulus griseus, 72 h incubation, mean ± SD of three experiments. It counts as cell-based, Chinese hamster. How it is done: as §2
In assay [8] the test system is HCT116. As to the kind of experiment: MTT assay. The class given is cell-based, human. The note with it: Homo sapiens, HCT-116, MTT. The procedure:
as §2

Like-named read-outs stand apart in the source and are kept apart here.

Regarding `O=C(/C=C/c1cccc(OCc2ccccc2)c1)c1ccc(O)cc1` [Compound 15k], the “ROS formation (oxidized DCF fluorescence)” value in the assay with HCT116 cells [1] was “significantly increased ROS formation”. In addition, the “incubation time to induce apoptosis (caspase 3/7)” value in the assay on caspases 3 and 7 (2 μM) is reported as “≈ 24 h”; in the assay with caspases 3 and 7 (4 and 8 μM) it was “≈ 10 h”. Moreover, the IC50 in the assay on S1 came out at 1.9 ± 0.9 µM; in the assay with LOVO, 2.3 ± 0.2 µM; in [5], 3.6 µM; in assay [6], 13.6 µM; in assay [7], 10.9 µM; in the assay on CHO it was 8.1 ± 1.2 µM. The IC50 in the assay on HCT116 [8] (72 h incubation, mean ± SD of three experiments, read-out: IC50 ± SD, Colon HCT116) amounted to 0.9 µM; in the assay with HCT116 [8] (comparison with knockout cells, read-out: IC50, HCT116 wild type), 0.89 µM. Further, the “effect on the cell cycle” value with HCT116 [2] was “significant concentration-dependent increase in the number of cells in the G2 and S phases”. In addition, the “nuclear condensation / fragmentation” value in the assay with HCT116 cells [3] is “significant increase in blue fluorescence, as well as highly condensed, fragmented nuclei chromatin”. Moreover, in the assay on HCT116 cells [4] (2, 4 or 8 μM, vs control), the “annexin V red fluorescence over time” value was “significantly increased annexin V red fluorescence”. The “incubation time at which significant difference in annexin V fluorescence appeared” value with HCT116 cells [4] (vehicle vs 15k) is reported as 12 h.

A word on the IC50: it is the concentration that inhibits the measured activity by half.

The record behind these values is publication PMC5974752, “Bax/Tubulin/Epithelial-Mesenchymal Pathways Determine the Efficacy of Silybin Analog HM015k in Colorectal Cancer Cell Growth and Metastasis” (Frontiers in Pharmacology, 2018).
